Results on two compounds are retold here after ChEMBL document CHEMBL1124045, “Synthesis and antiviral evaluation of carbocyclic analogues of 2'-azido- and 2'-amino-2'-deoxycytidine” (1988).

Assay [1] has as its system Human alphaherpesvirus 1. The assay is described as follows: Antiviral activity in vitro against Herpes simplex virus type 1 (HSV-1); NA is not active uM. In kind it is functional, organism-based.
Assay [2] deals with Human alphaherpesvirus 1. The assay is described as follows: Antiviral activity in vitro against Herpes simplex virus type 1 (HSV-1). In kind it is functional. The settings on record: read-out: ED50 (the source's name).

The source made the active and inactive calls. The calls are words filed in the database; no cut-off is given here.

Turning to `[N-]=[N+]=N[C@@H]1C(n2ccc(N)nc2=O)CC(CO)[C@@H]1O` (some centres not stated), the ED50 result in the assay on Human alphaherpesvirus 1 [1] is “inactive”.

With `Nc1ccn(C2CC(CO)[C@H](O)[C@@H]2N)c(=O)n1` (some centres not stated), the EC50 with Human alphaherpesvirus 1 [2] turned out to be 50 µM.
